Patent US20190337889A1, “COMPOSITIONS AND METHODS OF REGULATING CANCER RELATED DISORDERS AND DISEASES” (ONCO THERAPIES LLC, priority 2016, published 2019)

Columns and labels:
HepG2 cells = assay: XTT cell death assay, HepG2 hepatocarcinoma cells; format: cell-based, human; conditions: dilutions 0.01 nM to 200 μM, usually 24 or 48 hours; for minimal effective concentration: Homo sapiens, HepG2, *Greater than 50% inhibition, read-out: HepG2* (liver cancer): concentration with greater than 50% inhibition
Method: (§1) Maintenance and Treatment of Cell Lines. Human HepG2 hepatocarcinoma cells and human U87MG glioma cells (ATCC, Manassas, Va.) were maintained in EMEM medium supplemented with 10% FBS (Hyclone, Logan, Utah). The human 1321N1 astrocytoma cells (European Collection of Cell Cultures, Sigma-Aldrich) were cultured in Dulbecco's modified Eagle's medium supplemented with 10% FBS and 2 mM L-glutamine. Human prostate carcinoma cell line PC3 was cultured in F-12K medium (Life Technologies) supplemented 10% FBS. Human lung carcinoma cell line A549 was cultured in DMEM+2 mM glutamine+10% FBS. ER positive, estrogen independent for growth MCF7/LCC9 cell line was cultured in IMEM (Biofluids) supplemented with 5% charcoal stripped calf serum. Medulloblastoma cell line DAOY was cultured in Eagle's MEM supplemented with 10% FBS.
(§2) Cell death assay. The extent of cell death and toxicity of the compounds was tested by XTT assay. The cells were plated in their respective media in 96-well plates. The compounds and were added in dilutions ranging from 0.01 nM to 200 μM and for control DMSO to 1% was used. […] For XTT assay first the medium in the wells was replaced with 200 μs of fresh phenol-red free medium. Then 50 μls of XTT solution with PMS was added to the wells. The XTT solution was made adding 0.02% phenazine methosulfate (Sigma-Aldrich #P9625) to 1 mg/ml XTT sodium salt made up in phenol-red free RPMI (Sigma-Aldrich #X4636).

PC3 cells = assay: XTT cell death assay, PC3 prostate carcinoma cells; format: cell-based; conditions: Homo sapiens, PC-3, # = 200 uM not tested, read-out: PC3: concentration with effect on cancer cells
Method: (§3) Maintenance and Treatment of Cell Lines. Human HepG2 hepatocarcinoma cells and human U87MG glioma cells (ATCC, Manassas, Va.) were maintained in EMEM medium supplemented with 10% FBS (Hyclone, Logan, Utah). The human 1321N1 astrocytoma cells (European Collection of Cell Cultures, Sigma-Aldrich) were cultured in Dulbecco's modified Eagle's medium supplemented with 10% FBS and 2 mM L-glutamine. Human prostate carcinoma cell line PC3 was cultured in F-12K medium (Life Technologies) supplemented 10% FBS. Human lung carcinoma cell line A549 was cultured in DMEM+2 mM glutamine+10% FBS. ER positive, estrogen independent for growth MCF7/LCC9 cell line was cultured in IMEM (Biofluids) supplemented with 5% charcoal stripped calf serum. Medulloblastoma cell line DAOY was cultured in Eagle's MEM supplemented with 10% FBS. All cell lines except […] were cultured at 37° C. in 5% CO2, and the medium was replaced every 2-3 days. MDA-MB-231 was grown in Leibovitz's L-15 medium with 10% FBS without CO2 supplementation.
as §2, with “#X4636). The plate was incubated for 4 hours at 37° C. and then the absorbance was read at a wavelength of 490 nm.” for “#X4636).”

MDA-MB-231 = assay: XTT cell death assay, MDA-MB-231 cells; format: cell-based; conditions: Homo sapiens, # = 200 uM not tested, read-out: MDA-MB-231: concentration with effect on cancer cells
Method: as §3
as §2, with “#X4636). The plate was incubated for 4 hours at 37° C. and then the absorbance was read at a wavelength of 490 nm.” for “#X4636).”

A549 = assay: XTT cell death assay, A549 lung carcinoma cells; format: cell-based; conditions: Homo sapiens, # = 200 uM not tested, read-out: A549: concentration with effect on cancer cells
Method: as §3
as §2, with “#X4636). The plate was incubated for 4 hours at 37° C. and then the absorbance was read at a wavelength of 490 nm.” for “#X4636).”

MCF7/LCC9 cell line = assay: XTT cell death assay, MCF7/LCC9 cells; format: cell-based; conditions: Homo sapiens, # = 200 uM not tested, read-out: LCC-9: concentration with effect on cancer cells
Method: as §3
as §2, with “#X4636). The plate was incubated for 4 hours at 37° C. and then the absorbance was read at a wavelength of 490 nm.” for “#X4636).”

DAOY = assay: XTT cell death assay, DAOY medulloblastoma cells; format: cell-based; conditions: Homo sapiens, # = 200 uM not tested, read-out: DAOY: concentration with effect on cancer cells
Method: as §3
as §2, with “#X4636). The plate was incubated for 4 hours at 37° C. and then the absorbance was read at a wavelength of 490 nm.” for “#X4636).”

1321N1 cells = assay: XTT cell death assay, 1321N1 astrocytoma cells; format: cell-based; conditions: Homo sapiens, *Greater than 50% inhibition, dilutions 0.01 nM to 200 μM, usually 24 or 48 hours, read-out: 1321N* (brain cancer): concentration with greater than 50% inhibition
Method: as §1, §2

Row | SMILES | minimal effective concentration (HepG2 cells) [µM] | minimal effective concentration (PC3 cells) [µM] | minimal effective concentration (MDA-MB-231) [µM] | minimal effective concentration (A549) [µM] | minimal effective concentration (MCF7/LCC9 cell line) [µM] | minimal effective concentration (DAOY) [µM] | minimal effective concentration (1321N1 cells) [µM] | HepG2* (liver cancer): concentration with greater than 50% inhibition (HepG2 cells)
1 | CC(Cc1ccc2ccccc2c1)NCC(O)c1ccccc1 (centres unmarked) [NT020, 2-((1-(naphthalen-2-yl)propan-2-yl)amino)-1-phenylethan-1-ol] | 100 | 100 | 100 | 100 | 100 | 100 |  | 
2 | Cc1ccc(CC(C)NCCc2ccc(O)cc2)c2ccccc12 (centres unmarked) [NT034] | 200 |  | 100 |  | 100 |  |  | 
3 | CC(N)c1cccc2ccccc12 (centres unmarked) [NT009] | 100 |  |  |  |  |  | 100 | 
4 | COc1ccc2cc(C(C)N)ccc2c1 (centres unmarked) [NT011] | 200 |  |  |  |  |  | 200 | 
5 | Cc1ccc(CC(C)NCC(O)c2cccc(O)c2)c2ccccc12 (centres unmarked) [NT037, 3-(1-hydroxy-2-((1-(4-methylnaphthalen-1-yl)propan-2-yl)amino)ethyl)phenol] |  |  | 100 | 100 | 100 | 100 |  | 
6 | CC(N)c1ccc2ccccc2c1 (centres unmarked) [NT010] | 200 |  |  |  |  |  | 200 | 
7 | CC(Cc1ccc2ccccc2c1)NCC(O)c1ccccc1O (centres unmarked) [NT030, 2-(1-hydroxy-2-((1-(naphthalen-2-yl)propan-2-yl)amino)ethyl)phenol] | 100 | 100 | 100 | 100 | 100 | 100 |  | 
8 | CC(Cc1ccc2ccccc2c1)NCC(O)c1cccc(O)c1 (centres unmarked) [NT023, 3-(1-hydroxy-2-((1-(naphthalen-2-yl)propan-2-yl)amino)ethyl)phenol] | 100 | 100 | 100 | 100 | 100 | 100 |  | 
9 | O=C(O)c1cc(O)c(O)c(O)c1 [NT003] | 200 |  |  |  |  |  | 200 | 
10 | CC(Cc1cccc2ccccc12)Nc1ccc(O)cc1 (centres unmarked) [NT017, 4-((1-(naphthalen-1-yl)propan-2-yl)amino)phenol] |  | 100 |  | 100 |  | 100 | 100 | No effect
11 | CC(Cc1ccc2ccccc2c1)Nc1ccc(O)cc1 (centres unmarked) [NT018, 4-((1-(naphthalen-2-yl)propan-2-yl)amino)phenol] | 200 | 100 |  | 100 |  | 100 | 100 | 
12 | CC(Cc1ccc2ccccc2c1)NCCc1ccc(O)cc1 (centres unmarked) [NT021, 4-(2-((1-(naphthalen-2-yl)propan-2-yl)amino)ethyl)phenol] | 200 | 200 | 100 | 100 | 100 | 100 |  | 
13 | Cc1ccc(CC(C)NCC(O)c2ccccc2)c2ccccc12 (centres unmarked) [NT038, 2-((1-(4-methylnaphthalen-1-yl)propan-2-yl)amino)-1-phenylethan-1-ol] |  |  | 100 | 100 | 100 | 100 |  | 
